The results in this text go back to US20110045083A1, “USE LARCH WOOD FOR TREATING INFLAMMATION” (priority 2007, published 2011).

Each structure is given as a SMILES string. Where only a bound is given, the exact number is not on record here.

The assay deals with 5-LOX mediated LT biosynthesis. The experiment in a line: LT biosynthesis inhibition assay in activated neutrophile granulocytes, LTB4 EIA. It is filed as cell-based, human. Conditions: for IC50 / inhibition at 50 µM: Homo sapiens; for inhibition at 50 µM: screening concentration 50 μM. Here is the method: 1.) LT biosynthesis inhibition assay
The assay was performed as described in [Michael Adams, Olaf Kunert, Ernst Haslinger, Rudolf Bauer: Inhibition of Leukotriene Biosynthesis by Quinolone Alkaloids from the Fruits of Evodia Rutaecarpa; Planta med. 2004 (70): 904-908] with some modifications.
Principle: Activated neutrophile granulocytes with 5-LOX activity are incubated with a defined concentration of test sample and arachidonic acid. After stopping the enzymatic reaction by addition of formic acid and centrifugation to remove cellular fragments, the produced LTB4 is quantified in the supernatant by means of an LTB4 EIA kit.
Isolation of human neutrophile granulocytes: 30 ml of venous human blood from healthy voluntary donors are collected with a Vacutainer™ (BD, Plymouth, UK) system containing a 0.219 M pre-analytical citric acid solution. The blood is immediately transferred to a falcon tube containing 20 ml of sedimentation solution (1% NaCl, 6% dextran T-500) and left to separate for 60 min at 4° C. While most of the dense erythrocytes sink into the dextran layer, the lighter blood fractions remain in the upper layer which is then removed and centrifuged at 1600 rpm (4° C., 10 min) to concentrate the leukocytes. The plasma supernatant is discarded, the pellet is resuspended in 10 ml of a wash buffer (10% CaCl2.2H2O p.a.; 0.1% anhydrous d-glucose; 0.2% MgCl2.6H2O; 0.04% KCl; 1.75% TRIS p.a.; with the pH adjusted to 7.6 with 1N HCl). After centrifugation at 1400 rpm (4° C., 10 min) and removal of the supernatant the resulting pellet is resuspended in 10 ml of a hypotonic lysis buffer (0.17% NH4Cl; 0.2% TRIS; pH 7.2) and gently shaken for 5 min at room temperature to destroy remaining erythrocytes. The suspension is submitted to another centrifugation at 1400 rpm (4° C., 5 min). The pellet is resuspended in 10 ml of wash buffer and then centrifuged at 1400 rpm (4° C., 15 min). The resulting pellet which now mainly contains neutrophile granulocytes is resuspended in 2 ml of TRIS buffer (1.75% TRIS p.a., 0.9% NaCl, pH 7.4), tested for vitality, quantified and then diluted to a cell concentration of 4500 cells/ml with TRIS buffer.
Cell vitality test: 50 μl of cell suspension and 10 μl of trypan blue solution (0.4%) (Sigma Chemical Co. Steinheim, Germany) are mixed on a glass object carrier and examined with a light microscope at 1000 fold magnification. Dead cells appear larger and darker due to absorption of trypan blue. The vitality of the cells must be >95%.
Determination of cell concentration: 10 μl of granulocyte cell suspension are dyed using 990 μl aqueous TURKS solution (Merck) and quantified in a “Neubauer” chamber (Assistent, Germany).
Sample preparation: samples are dissolved in an appropriate amount of ethanol p.a. to be added to the test mixture resulting in screening concentrations of 50 μM for pure compounds and 20 μg/ml for crude. The commercially available 5-LOX inhibitor zileuton (Sequoia Research Products Ltd., UK) is used as a positive control at a concentration of 10 μM representing its IC50 in this test system.
Incubation procedure: The incubation mixture in a 96-well flat bottom microtitre plate (Bibby Sterilin, Staffordshire, UK) consists of 265 μl leukocyte suspension, with 75.5 μM CaCl2, 0.152 μM […] (ETYA) as an inhibitor of the 12-LOX pathway, 0.642 μM Ca ionophore A23187 and 4.43 μM arachidonic acid, the substrate of the 5-LOX pathway, along with 5 μl of each test solution or 5 μl of EtOH p.a. in control wells. After incubation for 10 min at 37° C. in darkness, the reaction is stopped by addition of 20 μl of 10% formic acid. The microtitre plate is centrifuged for 15 min at 1400 rpm to separate free LTB4 from cellular particles before the supernatant is diluted 40 fold in EIA buffer and applied to a competitive LTB4 EIA kit (Assay Designs Inc.).
LTB4 EIA: The plate is incubated for 2 hours at room temperature on an orbital shaker. […]

On to `CC(C)c1ccc2c(c1)CCC1C(C)(CO)CCCC21C` (stereo not shown) [Dehydroabietinol], for which the midpoint of inhibition, the IC50, lay at 10.9 µM and the inhibition (as a rule, the percentage by which the read-out fell short of the control) at 50 µM worked out at 94.5 ± 1.4%.

On to `CC(C)c1ccc2c(c1)CCC1C(C)(C(=O)O)CCCC21C` (stereo not shown) [Dehydroabietic acid], for which the IC50 – broadly, the concentration that gives 50% inhibition – was found to be 44.6 µM and the inhibition at 50 µM turned out to be 47.9 ± 8.4%.

On to `CC(C)C1=CC2=C(CC1)C1(C)CCCC(C)(C(=O)O)C1CC2` (stereo not shown) [Palustric acid], for which 17.8 µM corresponded to half-maximal inhibition (IC50) and the inhibition at 50 µM turned out to be 66.7 ± 3.1%.

On to `C=C[C@@]1(C)CC[C@H]2C(=CC[C@@H]3[C@]2(C)CCC[C@@]3(C)C(=O)O)C1` [Isopimaric acid], for which the IC50 is 10.2 µM and the inhibition at 50 µM came to 98.1 ± 0.5%.

Take `C=CC(C)(O)CCC1C(=C)CC(OC(C)=O)C2C(C)(C)CCCC12C` (stereo not shown) [Larixyl acetate]: the midpoint of inhibition, the IC50, lay at 10.4 µM and testing at 50 µM gave an inhibition of 98.1 ± 0.1%.

Take `C=CC(C)(O)CCC1C(=C)CC(O)C2C(C)(C)CCCC12C` (stereo not shown) [Larixol]: the “IC50 LT assay” value is “inactive”, the IC50 is above 125 µM and the inhibition at 50 µM stood at 32.7 ± 5%.
